Results: PMC3806745, “Selective Inhibition of Matrix Metalloproteinase-9 Attenuates Secondary Damage Resulting from Severe Traumatic Brain Injury” (PLoS ONE, 2013)

Tests used:
[1] = system: TBI mouse model (EM impactor CCI); assay: Brain lesion volume in cresyl violet-stained sections after TBI (stereology, WSI); assay type: in vivo; settings: TBI mice, 25 mg/kg i.p. for 7 days
Procedure: All animal procedures were performed under the compliance with protocol approval by the University of Missouri Animal Care and Use Committee, which is in accordance with the National Institutes of Health Guide for the Care and Use of Laboratory Animals. The TBI procedure employed an EM impactor for CCI and was conducted as previously described. A total of 86 mice were used in this study. Briefly, 8–10 week-old adult male C57BL/6J mice (The Jackson Laboratory, Bar Harbor, ME) weighing 20–25 g were anesthetized with 2.0% gaseous isoflurane in a nitrogen/oxygen mixture inside a sealed anesthesia chamber. Each mouse was then stably placed on a Kopf stereotaxic apparatus (David Kopf Instruments, Tujunga, CA). Body temperature was monitored with a rectal thermistor probe (TH-10Kmp, Cell MicroControls, Norfolk, VA), and maintained at a constant 37°C on a silicon heating pad (HS-3×2.5 Heater, Cell MicroControls, Norfolk, VA). Following a midline skin incision and removal of connective tissue under sterile conditions, a 5.0 mm diameter craniotomy was performed in the left parietotemporal skull using a pedal-operated high-speed micro-drill mounted on the stereotaxic arm. A 5.0-mm diameter bone disc was then removed to expose the left cortex, while keeping the dura mater intact. A MATLAB-controlled EM impactor (MyNeuroLab Stereotaxic Impactor, St. Louis, MO) with a 3.0-mm diameter tip was centered at 2.7 mm to the left of the midline suture and 3.0 mm rostral to lambda, at an angle of 15° with the vertical. Once the position was set, the EM impactor delivered a CCI with a velocity of 5.0 m/s and dwell time of 100 ms, at a depth of 2.5 mm. This operation produces a moderately severe contusion in the left parietotemporal cortex and the underlying hippocampus as marked by pronounced behavioral deficits, but virtually no mortality. Following impact, the original skull disc was placed back over the exposed cortex, and the incision was sutured. Each mouse was released from anesthesia and placed in an empty cage over a heating pad for recovery. All efforts were made to minimize animal suffering. For sham control mice used in the study, only the craniotomy was performed. […] Mice were observed daily for the duration of the study (7 or 30 days). For design of the 30-day long term study, animals in each group were double-blinded and randomly assigned into two different tissue process procedures after behavioral testing–mouse brains were either fixed and sectioned for histopathological evaluation, or freshly dissected and then frozen at −80°C for later analysis, reflecting the difference of the animal numbers mentioned in the legends of Figures 7 and 8.
At 7 or 30 days after TBI, mice were sacrificed and brains were processed for histochemical staining and assessment of brain lesion volumes using the stereology technique as described, [45]. Briefly, mice were sacrificed at appropriate experimental time points and transcardially perfused with 4% paraformaldehyde in 100 mM phosphate buffer (PB) and brains were dissected. […] Every 5th section was mounted on poly-L-lysine coated glass slides and stained with cresyl violet to quantify brain lesion volumes and examine neuronal cell death.
Systematic evaluation of a large number of histological specimens in an unbiased manner requires high-speed imaging tools for the supervised analysis of pathological assessment to reduce quantitative variations. […]

[2] = system: TBI mouse model (EM impactor CCI); assay: Barnes maze after TBI; assay type: in vivo; settings: TBI mice, 25 mg/kg i.p. for 7 days
Procedure: All animal procedures were performed under the compliance with protocol approval by the University of Missouri Animal Care and Use Committee, which is in accordance with the National Institutes of Health Guide for the Care and Use of Laboratory Animals. The TBI procedure employed an EM impactor for CCI and was conducted as previously described. A total of 86 mice were used in this study. Briefly, 8–10 week-old adult male C57BL/6J mice (The Jackson Laboratory, Bar Harbor, ME) weighing 20–25 g were anesthetized with 2.0% gaseous isoflurane in a nitrogen/oxygen mixture inside a sealed anesthesia chamber. Each mouse was then stably placed on a Kopf stereotaxic apparatus (David Kopf Instruments, Tujunga, CA). Body temperature was monitored with a rectal thermistor probe (TH-10Kmp, Cell MicroControls, Norfolk, VA), and maintained at a constant 37°C on a silicon heating pad (HS-3×2.5 Heater, Cell MicroControls, Norfolk, VA). Following a midline skin incision and removal of connective tissue under sterile conditions, a 5.0 mm diameter craniotomy was performed in the left parietotemporal skull using a pedal-operated high-speed micro-drill mounted on the stereotaxic arm. A 5.0-mm diameter bone disc was then removed to expose the left cortex, while keeping the dura mater intact. […]

[3] = mouse, in vivo, ip, 25 mg/kg
Procedure: (§1) Under anesthesia, terminal blood was collected in heparin tubes through the posterior vena cava at various time points after the last dose, and tubes were centrifuged to collect plasma. Whole brain samples were harvested after transcardiac perfusion with saline and immediately flash frozen in liquid nitrogen and stored at −80°C until analysis. […] At 10 minutes after the last dose, whole brain samples were rapidly dissected into different regions (cortex, striatum, hippocampus, cerebellum and brain stem), and immediately frozen in dry ice.
(§2) A 75-µL aliquot of plasma was mixed with 150 µL of internal standard in acetonitrile. The sample was centrifuged at 10,000×g for 10 minutes. Brain samples were weighed and homogenized for 5 minutes in one volume equivalent of cold acetonitrile, containing an internal standard, using a bullet blender (Next Advance, Inc., Averill Park, NY). For regional brain distribution, the striatum, hippocampus, cerebellum and brain stem samples were pooled from 3 different mice for analysis.
(§3) The homogenates were centrifuged twice at 20,000×g for 20 minutes at 4°C. […] Quantification was performed using peak area ratios relative to the internal standard and linear regression parameters were calculated from the calibration curve standards prepared in blank mouse plasma (and blank brain). The internal standard used in all of the analyses was N-(4-(4-((thiiran-2-ylmethyl)sulfonyl)phenoxy)phenyl)methanesulfonamide [43], which was analyzed by MRM using the transition 398→261.
(§4) Pharmacokinetic parameters were calculated as follows. The area under the mean concentration-time curve up to the last quantifiable sampling time (AUC 0–last) was calculated by the trapezoidal rule using the pharmacokinetic software PK Solutions (Version 2.0, Summit Research Services, Montrose, CO). The AUC-time curve from time zero to infinity (AUC 0–∞), representing systemic exposure of a therapeutic agent in the body, was calculated as AUC 0–last+(C last/k), where C last is the concentration at the last quantifiable sampling time and k is the elimination rate constant. Half-lives (t ½α and t ½β) were estimated from the linear segment of the initial or terminal portion of the concentration-time data by linear regression, where the slope of the line was the rate constant k and t ½ = ln 2/k.

[4] = Plasma and brain levels and pharmacokinetics of SB-3CT and p-OH SB-3CT after repeated i.p. SB-3CT (UPLC/ESI-MRM); settings: mice
Procedure: as §1, §2, §3, §4

[5] = cited from earlier work
[6] = repeated 25 mg/kg i.p. SB-3CT, 20 min after last dose
[7] = repeated 25 mg/kg i.p. SB-3CT, 30 min after last dose
[8] = repeated 25 mg/kg i.p. SB-3CT, 60 min after last dose
[9] = repeated 25 mg/kg i.p. SB-3CT, 90 min after last dose
[10] = repeated 25 mg/kg i.p. SB-3CT, 120 min after last dose

With `O=S(=O)(CC1CS1)c1ccc(Oc2ccccc2)cc1` (stereo not shown) [SB-3CT] the “Reduction in brain damage (cortical lesion volume) vs vehicle” value ([1]; 7 days post-trauma) was ~14%, the Cortical lesion volume ([1]; 30 days post-trauma) was 15.60±1.26 mm^3 and the “Cortical lesion volume smaller than vehicle” value ([1]; 30 days post-trauma) was “approximately 24%”. The Hippocampal lesion volume ([1]; 30 days post-trauma) was 4.91±0.40 mm^3, the “Hippocampal lesion volume smaller than vehicle” value ([1]; 30 days post-trauma) was “approximately 26%” and the “Barnes maze latency AUC over 10 trials (memory acquisition) vs vehicle” value ([2]; 5-day task started 18 days post-trauma) was “ameliorated cognitive deficits”. For the same compound, the “Barnes maze latency and error numbers vs vehicle” value ([2]; last two days of the trials (days 22 and 23 after TBI)) was “significantly attenuated”, the “AUC 0–last, brain” value [3] was 86.1 pmol·min/mg and the “AUC 0–last, plasma” value [3] was 130 µM·min. The “AUC 0–∞, brain” value [3] was 87.8 pmol·min/mg, the “AUC 0–∞, plasma” value [3] was 134 µM·min and the “t ½β (elimination half-life), brain” value [3] was 53 min. For the same compound, the “t ½β (elimination half-life), plasma” value [3] was 25 min, the “Brain AUC 0–∞, equivalent” value ([4]; assuming a density of 1 g/mL, repeated 25 mg/kg i.p. SB-3CT) was 87.8 µM·min and the “t ½α, brain” value ([4]; repeated 25 mg/kg i.p. SB-3CT) was 8.7 min. For the same compound, the “t ½α, plasma” value ([4]; repeated 25 mg/kg i.p. SB-3CT) was 6.6 min, the Brain concentration ([4]; repeated 25 mg/kg i.p. SB-3CT (0, 2, 24 h), 10 min after last dose) was 3.7±0.5 pmole/mg tissue and the Plasma concentration ([4]; repeated 25 mg/kg i.p. SB-3CT, 10 min after last dose) was 6200 ± 100 nM. It also gave a Brain concentration [4, 6] of 1.6±0.3 pmole/mg tissue, a Plasma concentration [4, 6] of 2900 ± 300 nM and a Brain concentration [4, 7] of 0.99±0.09 pmole/mg tissue. It also gave a Plasma concentration [4, 7] of 760 ± 260 nM, a Brain concentration [4, 8] of 0.19±0.05 pmole/mg tissue and a Plasma concentration [4, 8] of 550 ± 80 nM. The Brain concentration [4, 9] was 0.16±0.08 pmole/mg tissue, the Plasma concentration [4, 9] was 220 ± 130 nM and the Brain concentration [4, 10] was 0.049±0.013 pmole/mg tissue. The Plasma concentration [4, 10] was 100 ± 40 nM, the Brain concentration ([4]; repeated 25 mg/kg i.p. SB-3CT, 180 min after last dose) was 0.022±0.005 pmole/mg tissue and the “Brain AUC 0–∞” value ([5]; following a single dose of SB-3CT) was 122 pmol·min/mg. The Elimination half-life ([5]; mouse, in vivo) was 46 min.
